Reference: ChEMBL document CHEMBL1201862, “PubChem BioAssay data set” (2004)
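Method: 48-hour compound exposure of cells in 96-well plates, five concentrations, linear interpolation of endpoints. At the GI50, growth is halved.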 Calls of active or inactive are those of the source. Rule as the data show it: active = GI50 up to about 1.1 µM and inactive = higher.

Experiments:
Assay in all cases: DTP human tumour cell line panel, 48 h
786-0 = system: 786-0
A549 = system: A549
CCRF-CEM = system: CCRF-CEM
EKVX = system: EKVX
HCC 2998 = system: HCC 2998
HCT-116 = system: HCT-116
HCT-15 = system: HCT-15
HL-60 = system: HL-60
HOP-62 = system: HOP-62
HT-29 = system: HT-29
Hs-578T = system: Hs-578T
K562 = system: K562
KM12 = system: KM12
MCF7 = system: MCF7
MOLT-4 = system: MOLT-4
Malme-3M = system: Malme-3M
NCI-H226 = system: NCI-H226
NCI-H23 = system: NCI-H23
NCI-H460 = system: NCI-H460
NCI-H522 = system: NCI-H522
OVCAR-3 = system: OVCAR-3
OVCAR-5 = system: OVCAR-5
OVCAR-8 = system: OVCAR-8
PC-3 = system: PC-3
RPMI-8226 = system: RPMI-8226
SF-268 = system: SF-268
SF-295 = system: SF-295
SF-539 = system: SF-539
SK-MEL-28 = system: SK-MEL-28
SK-MEL-2 = system: SK-MEL-2
SK-MEL-5 = system: SK-MEL-5
SN12C = system: SN12C
SNB-75 = system: SNB-75
SR = system: SR
SW-620 = system: SW-620
TK-10 = system: TK-10
U-251 = system: U-251
UACC-257 = system: UACC-257
COLO 205 = system: COLO 205
IGROV-1 = system: IGROV-1
M14 = system: M14
MDA-MB-435 = system: MDA-MB-435
UACC-62 = system: UACC-62
A498 = system: A498
ACHN = system: ACHN
CAKI-1 = system: CAKI-1
DU-145 = system: DU-145
HOP-92 = system: HOP-92
LOX IMVI = system: LOX IMVI
MDA-MB-231 = system: MDA-MB-231
MDA-N = system: MDA-N
NCI/ADR-RES = system: NCI/ADR-RES
OVCAR-4 = system: OVCAR-4
RXF 393 = system: RXF 393
SK-OV-3 = system: SK-OV-3
SNB-19 = system: SNB-19
T47D = system: T47D
UO-31 = system: UO-31

Structure (SMILES): Cc1ncc([N+](=O)[O-])n1CCNCCCn1ccnc1[N+](=O)[O-]
- GI50 (786-0): > 100 µM (inactive)
- GI50 (A549): > 100 µM (inactive)
- GI50 (CCRF-CEM): > 100 µM (inactive)
- GI50 (EKVX): > 10 µM (inactive)
- GI50 (HCC 2998): > 100 µM (inactive)
- GI50 (HCT-116): > 100 µM (inactive)
- GI50 (HCT-15): > 100 µM
- GI50 (HL-60): > 100 µM (inactive)
- GI50 (HOP-62): > 100 µM (inactive)
- GI50 (HT-29): > 100 µM (inactive)
- GI50 (Hs-578T): > 100 µM (inactive)
- GI50 (K562): > 100 µM (inactive)
- GI50 (KM12): > 100 µM (inactive)
- GI50 (MCF7): > 100 µM (inactive)
- GI50 (MOLT-4): > 100 µM (inactive)
- GI50 (Malme-3M): > 100 µM (inactive)
- GI50 (NCI-H226): > 100 µM (inactive)
- GI50 (NCI-H23): > 100 µM (inactive)
- GI50 (NCI-H460): > 100 µM (inactive)
- GI50 (NCI-H522): > 100 µM (inactive)
- GI50 (OVCAR-3): > 100 µM (inactive)
- GI50 (OVCAR-5): 75.3 µM (inactive)
- GI50 (OVCAR-8): > 100 µM (inactive)
- GI50 (PC-3): > 100 µM (inactive)
- GI50 (RPMI-8226): > 100 µM (inactive)
- GI50 (SF-268): > 100 µM (inactive)
- GI50 (SF-295): > 100 µM (inactive)
- GI50 (SF-539): > 100 µM (inactive)
- GI50 (SK-MEL-28): > 100 µM (inactive)
- GI50 (SK-MEL-2): > 100 µM (inactive)
- GI50 (SK-MEL-5): > 100 µM (inactive)
- GI50 (SN12C): > 100 µM (inactive)
- GI50 (SNB-75): > 100 µM (inactive)
- GI50 (SR): > 100 µM (inactive)
- GI50 (SW-620): > 100 µM (inactive)
- GI50 (TK-10): 70.3 µM (inactive)
- GI50 (U-251): > 100 µM (inactive)
- GI50 (UACC-257): > 100 µM (inactive)

Structure (SMILES): O=CC(O)C(O)C(O)C(O)COP(=O)(O)Cc1ccccc1 (configuration not stated)
- GI50 (CCRF-CEM): > 10 µM (inactive)
- GI50 (COLO 205): > 10 µM (inactive)
- GI50 (HL-60): > 10 µM (inactive)
- GI50 (IGROV-1): > 10 µM (inactive)
- GI50 (M14): > 10 µM (inactive)
- GI50 (MDA-MB-435): > 10 µM (inactive)
- GI50 (MOLT-4): > 10 µM (inactive)
- GI50 (Malme-3M): > 10 µM (inactive)
- GI50 (UACC-62): > 10 µM (inactive)

Structure (SMILES): COC(=O)C(NC(=O)CSc1nnc(COc2ccc(Cl)cc2)n1-c1ccccc1)C(C)C (configuration not stated)
- GI50 (786-0): 18.1 µM (inactive)
- GI50 (A498): 21.2 µM (inactive)
- GI50 (A549): 35.2 µM (inactive)
- GI50 (ACHN): 39.3 µM (inactive)
- GI50 (CAKI-1): 10.3 µM (inactive)
- GI50 (CCRF-CEM): 23.4 µM (inactive)
- GI50 (COLO 205): 23.4 µM (inactive)
- GI50 (DU-145): 37.3 µM (inactive)
- GI50 (EKVX): 23 µM (inactive)
- GI50 (HCC 2998): 18.6 µM (inactive)
- GI50 (HCT-116): 13 µM (inactive)
- GI50 (HCT-15): 36.7 µM
- GI50 (HL-60): 16.7 µM (inactive)
- GI50 (HOP-62): 18.6 µM (inactive)
- GI50 (HOP-92): 21.6 µM (inactive)
- GI50 (HT-29): 17 µM (inactive)
- GI50 (IGROV-1): 16.3 µM (inactive)
- GI50 (K562): 53.8 µM (inactive)
- GI50 (KM12): 19.1 µM (inactive)
- GI50 (LOX IMVI): 26.2 µM (inactive)
- GI50 (M14): 21.9 µM (inactive)
- GI50 (MCF7): 40.7 µM (inactive)
- GI50 (MDA-MB-231): 17.4 µM (inactive)
- GI50 (MDA-MB-435): 19.9 µM (inactive)
- GI50 (MDA-N): 16.2 µM (inactive)
- GI50 (MOLT-4): 21.6 µM (inactive)
- GI50 (Malme-3M): 16.5 µM (inactive)
- GI50 (NCI-H226): 17 µM (inactive)
- GI50 (NCI-H23): 25.4 µM (inactive)
- GI50 (NCI-H460): 33.2 µM (inactive)
- GI50 (NCI-H522): 10.6 µM (inactive)
- GI50 (NCI/ADR-RES): 22.6 µM (inactive)
- GI50 (OVCAR-3): 16.5 µM (inactive)
- GI50 (OVCAR-4): 25.6 µM (inactive)
- GI50 (OVCAR-5): 28.8 µM (inactive)
- GI50 (OVCAR-8): 23.7 µM (inactive)
- GI50 (PC-3): 21.7 µM (inactive)
- GI50 (RXF 393): 24 µM (inactive)
- GI50 (SF-268): 20.7 µM (inactive)
- GI50 (SF-295): 22 µM (inactive)
- GI50 (SF-539): 31.2 µM (inactive)
- GI50 (SK-MEL-28): 21.5 µM (inactive)
- GI50 (SK-MEL-2): 18.7 µM (inactive)
- GI50 (SK-OV-3): 37.2 µM (inactive)
- GI50 (SN12C): 18.6 µM (inactive)
- GI50 (SNB-19): 29.3 µM (inactive)
- GI50 (SNB-75): 14.6 µM (inactive)
- GI50 (SR): 1.08 µM (active)
- GI50 (SW-620): 56.4 µM (inactive)
- GI50 (T47D): 20.8 µM (inactive)
- GI50 (TK-10): 15.6 µM (inactive)
- GI50 (U-251): 51.4 µM (inactive)
- GI50 (UACC-257): 17.7 µM (inactive)
- GI50 (UACC-62): 17.8 µM (inactive)
- GI50 (UO-31): 26.7 µM (inactive)

Structure (SMILES): CC(=O)OCC1OC(N2C(c3ccccc3)=CC(c3cccs3)C(C#N)=C2S)C(OC(C)=O)C(OC(C)=O)C1OC(C)=O (configuration not stated)
- GI50 (786-0): 2.55 µM (inactive)
- GI50 (A498): 10.5 µM (inactive)
- GI50 (A549): > 100 µM (inactive)
- GI50 (ACHN): > 100 µM (inactive)
- GI50 (CAKI-1): > 100 µM (inactive)
- GI50 (CCRF-CEM): > 100 µM (inactive)
- GI50 (COLO 205): > 100 µM (inactive)
- GI50 (DU-145): > 100 µM (inactive)
- GI50 (HCC 2998): > 100 µM (inactive)
- GI50 (HCT-116): 2.25 µM (inactive)
- GI50 (HCT-15): > 100 µM
- GI50 (Hs-578T): 2.47 µM (inactive)
- GI50 (IGROV-1): > 100 µM (inactive)
- GI50 (KM12): > 100 µM (inactive)
- GI50 (LOX IMVI): > 100 µM (inactive)
- GI50 (M14): 1.84 µM (inactive)
- GI50 (MCF7): > 100 µM (inactive)
- GI50 (MDA-MB-231): 6.03 µM (inactive)
- GI50 (MDA-N): > 100 µM (inactive)
- GI50 (MOLT-4): > 100 µM (inactive)
- GI50 (NCI-H23): 5.18 µM (inactive)
- GI50 (NCI-H460): > 100 µM (inactive)
- GI50 (NCI/ADR-RES): > 100 µM (inactive)
- GI50 (OVCAR-3): > 100 µM (inactive)
- GI50 (OVCAR-5): 4.92 µM (inactive)
- GI50 (PC-3): > 100 µM (inactive)
- GI50 (RXF 393): 3.43 µM (inactive)
- GI50 (SF-268): 4.49 µM (inactive)
- GI50 (SF-295): > 100 µM (inactive)
- GI50 (SF-539): 2.34 µM (inactive)
- GI50 (SK-MEL-2): > 100 µM (inactive)
- GI50 (SK-OV-3): > 100 µM (inactive)
- GI50 (SN12C): > 100 µM (inactive)
- GI50 (SNB-19): 47.3 µM (inactive)
- GI50 (SNB-75): 4.43 µM (inactive)
- GI50 (T47D): > 100 µM (inactive)
- GI50 (TK-10): > 100 µM (inactive)
- GI50 (U-251): 10.3 µM (inactive)
- GI50 (UACC-257): > 100 µM (inactive)
- GI50 (UO-31): > 100 µM (inactive)
